Assay results reported in ChEMBL document CHEMBL1139555, “Discovery of potent and selective phenylalanine based dipeptidyl peptidase IV inhibitors” (Bioorg Med Chem Lett, 2005).

Assays:
[1] = Plasma half-life of compound was determined in rat; type: ADME, cell-free
Dipeptidyl peptidase 9 = Dipeptidyl peptidase 9 (Homo sapiens, UniProt Q86TI2)
Dipeptidyl peptidase 4 = Dipeptidyl peptidase 4 (Homo sapiens, UniProt P27487)
Dipeptidyl peptidase 2 = Dipeptidyl peptidase 2 (Homo sapiens, UniProt Q9UHL4)
Dipeptidyl peptidase 8 = Dipeptidyl peptidase 8 (Homo sapiens, UniProt Q6V1X1)
Sequence of Dipeptidyl peptidase 8 (Q6V1X1 whole entry): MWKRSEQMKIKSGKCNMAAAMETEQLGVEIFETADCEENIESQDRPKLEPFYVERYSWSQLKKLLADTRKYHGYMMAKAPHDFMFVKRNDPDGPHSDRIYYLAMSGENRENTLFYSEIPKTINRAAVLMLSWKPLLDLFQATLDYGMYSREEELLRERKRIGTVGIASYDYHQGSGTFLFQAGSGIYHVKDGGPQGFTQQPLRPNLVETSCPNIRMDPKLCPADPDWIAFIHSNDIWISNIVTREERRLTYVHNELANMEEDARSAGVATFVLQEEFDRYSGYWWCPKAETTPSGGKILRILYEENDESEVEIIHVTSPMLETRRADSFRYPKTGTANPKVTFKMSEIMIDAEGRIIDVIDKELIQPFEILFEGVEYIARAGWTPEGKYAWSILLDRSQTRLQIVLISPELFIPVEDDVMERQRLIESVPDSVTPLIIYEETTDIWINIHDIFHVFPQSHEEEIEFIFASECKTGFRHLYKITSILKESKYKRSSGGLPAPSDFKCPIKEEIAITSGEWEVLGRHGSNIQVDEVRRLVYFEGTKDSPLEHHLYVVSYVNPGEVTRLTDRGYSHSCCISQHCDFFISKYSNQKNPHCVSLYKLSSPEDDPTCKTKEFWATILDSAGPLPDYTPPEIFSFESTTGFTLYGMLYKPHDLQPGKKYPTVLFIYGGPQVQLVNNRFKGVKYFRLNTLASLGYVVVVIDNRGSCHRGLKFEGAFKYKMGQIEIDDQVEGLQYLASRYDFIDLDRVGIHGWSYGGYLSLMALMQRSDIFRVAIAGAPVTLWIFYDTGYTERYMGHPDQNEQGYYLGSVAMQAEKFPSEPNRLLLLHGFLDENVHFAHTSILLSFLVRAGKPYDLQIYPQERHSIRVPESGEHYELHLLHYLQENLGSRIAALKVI

[2] = Oral bioavailability in rat; type: ADME, organism-based; details: in vivo
[3] = Plasma cearance of compound was determined in rat; type: ADME, organism-based; details: read-out: Clp
[4] = target: Voltage-gated inwardly rectifying potassium channel KCNH2 (Homo sapiens, UniProt Q12809)
Sequence of Voltage-gated inwardly rectifying potassium channel KCNH2 (Q12809 whole entry): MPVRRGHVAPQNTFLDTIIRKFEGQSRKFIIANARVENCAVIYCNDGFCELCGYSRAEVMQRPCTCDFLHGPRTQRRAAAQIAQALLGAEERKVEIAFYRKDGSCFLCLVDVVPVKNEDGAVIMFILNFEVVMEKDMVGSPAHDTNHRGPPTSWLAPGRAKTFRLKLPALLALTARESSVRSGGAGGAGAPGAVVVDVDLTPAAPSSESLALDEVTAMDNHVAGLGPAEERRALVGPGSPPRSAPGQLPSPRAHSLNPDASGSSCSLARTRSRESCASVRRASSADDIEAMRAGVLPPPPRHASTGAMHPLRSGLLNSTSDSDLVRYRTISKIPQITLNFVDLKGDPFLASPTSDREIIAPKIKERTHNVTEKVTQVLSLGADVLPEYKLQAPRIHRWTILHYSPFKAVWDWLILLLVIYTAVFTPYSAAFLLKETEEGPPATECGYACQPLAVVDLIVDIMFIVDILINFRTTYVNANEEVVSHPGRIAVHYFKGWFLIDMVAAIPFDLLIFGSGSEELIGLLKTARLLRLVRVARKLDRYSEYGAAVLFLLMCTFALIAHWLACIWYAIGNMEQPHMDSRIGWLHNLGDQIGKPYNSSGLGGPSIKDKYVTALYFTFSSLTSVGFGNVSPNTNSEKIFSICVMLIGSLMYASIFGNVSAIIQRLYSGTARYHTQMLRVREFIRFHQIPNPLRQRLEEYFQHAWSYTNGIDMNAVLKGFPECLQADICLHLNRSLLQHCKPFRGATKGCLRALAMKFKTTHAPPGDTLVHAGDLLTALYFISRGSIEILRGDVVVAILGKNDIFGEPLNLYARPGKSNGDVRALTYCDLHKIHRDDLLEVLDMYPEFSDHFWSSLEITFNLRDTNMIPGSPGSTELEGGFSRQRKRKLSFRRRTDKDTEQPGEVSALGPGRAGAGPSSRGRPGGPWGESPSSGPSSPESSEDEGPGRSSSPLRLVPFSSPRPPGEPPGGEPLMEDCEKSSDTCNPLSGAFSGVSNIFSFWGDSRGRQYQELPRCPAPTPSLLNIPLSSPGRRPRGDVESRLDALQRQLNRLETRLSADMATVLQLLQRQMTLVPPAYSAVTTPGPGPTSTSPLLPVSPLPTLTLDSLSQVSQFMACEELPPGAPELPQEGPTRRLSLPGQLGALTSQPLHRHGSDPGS

Sequence of Dipeptidyl peptidase 9 (Q86TI2 whole entry): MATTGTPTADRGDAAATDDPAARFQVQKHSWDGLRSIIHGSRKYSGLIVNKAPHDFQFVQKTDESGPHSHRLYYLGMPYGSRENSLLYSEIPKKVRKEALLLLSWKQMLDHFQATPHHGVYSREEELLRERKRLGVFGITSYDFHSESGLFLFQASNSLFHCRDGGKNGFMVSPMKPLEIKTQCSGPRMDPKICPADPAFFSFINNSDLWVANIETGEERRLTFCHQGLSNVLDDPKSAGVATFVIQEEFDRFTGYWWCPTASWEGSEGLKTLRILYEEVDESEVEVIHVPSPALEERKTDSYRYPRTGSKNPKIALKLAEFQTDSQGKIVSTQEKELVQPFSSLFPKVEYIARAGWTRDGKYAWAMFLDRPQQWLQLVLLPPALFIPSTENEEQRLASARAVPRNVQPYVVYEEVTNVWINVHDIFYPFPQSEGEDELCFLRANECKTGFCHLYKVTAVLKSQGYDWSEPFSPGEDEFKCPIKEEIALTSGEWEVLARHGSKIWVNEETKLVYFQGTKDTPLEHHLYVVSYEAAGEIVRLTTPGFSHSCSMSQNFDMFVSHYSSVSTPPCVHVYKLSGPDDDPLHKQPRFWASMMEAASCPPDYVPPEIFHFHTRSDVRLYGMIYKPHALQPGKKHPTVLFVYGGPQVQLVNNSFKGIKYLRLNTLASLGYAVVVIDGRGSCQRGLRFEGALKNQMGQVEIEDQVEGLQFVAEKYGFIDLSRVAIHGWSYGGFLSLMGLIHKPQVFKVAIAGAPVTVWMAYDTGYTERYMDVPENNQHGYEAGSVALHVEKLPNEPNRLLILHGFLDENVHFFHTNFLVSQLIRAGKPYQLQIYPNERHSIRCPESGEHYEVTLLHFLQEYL
Sequence of Dipeptidyl peptidase 4 (P27487 whole entry): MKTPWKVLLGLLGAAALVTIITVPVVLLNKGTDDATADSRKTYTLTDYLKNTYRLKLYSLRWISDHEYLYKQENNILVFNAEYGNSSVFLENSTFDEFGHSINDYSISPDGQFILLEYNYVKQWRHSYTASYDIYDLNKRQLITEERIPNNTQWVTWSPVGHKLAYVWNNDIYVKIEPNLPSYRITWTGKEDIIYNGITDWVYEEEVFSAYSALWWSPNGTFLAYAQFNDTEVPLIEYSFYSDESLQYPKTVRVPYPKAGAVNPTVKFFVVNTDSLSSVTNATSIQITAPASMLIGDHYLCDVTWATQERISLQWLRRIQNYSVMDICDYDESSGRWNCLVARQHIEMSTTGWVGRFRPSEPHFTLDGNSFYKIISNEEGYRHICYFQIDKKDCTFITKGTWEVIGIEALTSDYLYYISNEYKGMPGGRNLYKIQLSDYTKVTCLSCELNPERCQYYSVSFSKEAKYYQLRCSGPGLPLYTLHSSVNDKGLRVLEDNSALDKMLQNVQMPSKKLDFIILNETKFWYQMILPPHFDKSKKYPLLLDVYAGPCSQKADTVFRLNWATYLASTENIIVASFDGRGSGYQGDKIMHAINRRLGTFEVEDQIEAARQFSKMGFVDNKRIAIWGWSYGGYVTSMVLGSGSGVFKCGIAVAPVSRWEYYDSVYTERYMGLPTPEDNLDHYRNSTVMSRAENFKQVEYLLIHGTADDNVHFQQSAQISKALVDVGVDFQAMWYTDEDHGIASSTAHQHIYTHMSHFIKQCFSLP

Row | Compound | half-life [1] [min] | IC50 (Dipeptidyl peptidase 9) [µM] | IC50 (Dipeptidyl peptidase 4) [µM] | IC50 (Dipeptidyl peptidase 2) [µM] | IC50 (Dipeptidyl peptidase 8) [µM] | bioavailability [2] [%] | clearance [3] [mL/min/kg] | IC50 [4] [µM]
1 | C[C@@H](c1ccc(-c2ccc(F)cc2)cc1)[C@H](N)C(=O)N1CC[C@H](F)C1.O=C(O)C(F)(F)F | 132 | – | – | – | – | – | – | –
2 | C[C@@H](c1ccc(Cl)cc1)[C@H](N)C(=O)N1CC[C@H](F)C1 | – | > 100 | 0.17 | 5.9 | > 100 | – | – | –
3 | C[C@@H](c1ccc(-c2cccc(-c3nc[nH]n3)c2)cc1)[C@H](N)C(=O)N1CC[C@H](F)C1 | – | > 100 | 0.098 | 0.35 | > 100 | – | – | –
4 | C[C@@H](c1ccc(Br)cc1)[C@H](N)C(=O)N1CC[C@H](F)C1 | – | > 100 | 0.25 | 3.6 | > 100 | – | – | –
5 | C[C@@H](c1ccc(F)cc1C(F)(F)F)[C@H](N)C(=O)N1CC[C@H](F)C1 | – | > 100 | 54 | > 100 | > 100 | – | – | –
6 | C[C@@H](c1ccc(-c2ccccc2Cl)cc1)[C@H](N)C(=O)N1CC[C@H](F)C1 | – | > 100 | 0.086 | 0.38 | > 100 | – | – | –
7 | C[C@@H](c1cccc(F)c1)[C@H](N)C(=O)N1CC[C@H](F)C1 | – | > 100 | 3.7 | 14 | > 100 | – | – | –
8 | C[C@@H](c1ccc(-c2ccccn2)cc1)[C@H](N)C(=O)N1CC[C@H](F)C1 | – | > 100 | 0.24 | 4.6 | > 100 | – | – | –
9 | C[C@@H](c1ccc(-c2ccc(C(=O)O)cc2)cc1)[C@H](N)C(=O)N1CC[C@H](F)C1 | – | > 100 | 0.37 | 8.6 | > 100 | – | – | –
10 | C[C@@H](c1ccc(-c2nccs2)cc1)[C@H](N)C(=O)N1CC[C@H](F)C1 | – | > 100 | 1.5 | 0.72 | > 100 | – | – | –
11 | CCOC(=O)c1cccc(-c2ccc([C@H](C)[C@H](N)C(=O)N3CC[C@H](F)C3)cc2)c1 | – | > 100 | 0.075 | 0.49 | > 100 | – | – | –
12 | C[C@@H](c1cccc(Cl)c1)[C@H](N)C(=O)N1CC[C@H](F)C1 | – | > 100 | 1.1 | 5.7 | > 100 | – | – | –
13 | C[C@@H](c1ccc(-c2ccc(NS(C)(=O)=O)cc2)cc1)[C@H](N)C(=O)N1CC[C@H](F)C1 | – | > 100 | 0.71 | 1.8 | > 100 | – | – | –
14 | C[C@@H](c1ccc(-c2ccc(S(C)(=O)=O)cc2)cc1)[C@H](N)C(=O)N1CC[C@H](F)C1 | – | > 100 | 0.42 | 1.2 | > 100 | – | – | –
15 | C[C@@H](c1ccc(C(F)(F)F)cc1)[C@H](N)C(=O)N1CC[C@H](F)C1 | – | > 100 | 0.6 | 5.2 | > 100 | – | – | –
16 | C[C@@H](c1ccc(-c2cccnc2)cc1)[C@H](N)C(=O)N1CC[C@H](F)C1 | – | > 100 | 0.11 | 4.8 | > 100 | – | – | –
17 | C[C@@H](c1cc(F)cc(F)c1)[C@H](N)C(=O)N1CC[C@H](F)C1 | – | > 100 | 3.7 | 7.8 | > 100 | – | – | –

Row | Compound | half-life [1] [min] | IC50 (Dipeptidyl peptidase 9) [µM] | IC50 (Dipeptidyl peptidase 4) [µM] | IC50 (Dipeptidyl peptidase 2) [µM] | IC50 (Dipeptidyl peptidase 8) [µM] | bioavailability [2] [%] | clearance [3] [mL/min/kg] | IC50 [4] [µM]
18 | C[C@@H](c1ccc(-c2cccc(-c3nn[nH]n3)c2)cc1)[C@H](N)C(=O)N1CC[C@H](F)C1.O=C(O)C(F)(F)F | 18 | – | 0.006 | 2.9 | > 100 | 3.5 | 132 | –
19 | C[C@@H](c1ccc(-c2cccc(-c3nnco3)c2)cc1)[C@H](N)C(=O)N1CC[C@H](F)C1 | – | > 100 | 0.069 | 0.96 | > 100 | – | – | –
20 | C[C@@H](c1ccc(-c2cccc(C(=O)O)c2)cc1)[C@H](N)C(=O)N1CC[C@H](F)C1.O=C(O)C(F)(F)F | 24 | > 100 | 0.056 | 9.2 | > 100 | 2.3 | 50.8 | –
21 | C[C@@H](c1ccc(-c2cccc(NS(C)(=O)=O)c2)cc1)[C@H](N)C(=O)N1CC[C@H](F)C1 | – | > 100 | 0.15 | 0.25 | > 100 | – | – | –
22 | C[C@@H](c1ccc(N2CCCCC2)cc1)[C@H](N)C(=O)N1CC[C@H](F)C1 | – | > 100 | 7.9 | 28 | > 100 | – | – | –
23 | CCOC(=O)c1ccc(-c2ccc([C@H](C)[C@H](N)C(=O)N3CC[C@H](F)C3)cc2)cc1 | – | > 100 | 0.44 | 0.12 | > 100 | – | – | –
24 | C[C@@H](c1ccc(-c2ccc(F)cc2F)cc1)[C@H](N)C(=O)N1CC[C@H](F)C1 | – | > 100 | 0.037 | 2.5 | > 100 | – | – | –
25 | COc1ccccc1-c1ccc([C@H](C)[C@H](N)C(=O)N2CC[C@H](F)C2)cc1 | – | > 100 | 0.11 | 3.8 | > 100 | – | – | –
26 | C[C@@H](c1ccc(-c2ccccc2)c(F)c1)[C@H](N)C(=O)N1CC[C@H](F)C1 | – | > 100 | 2 | 48 | > 100 | – | – | –
27 | C[C@@H](c1ccc(-c2cccc(S(N)(=O)=O)c2)cc1)[C@H](N)C(=O)N1CC[C@H](F)C1 | – | > 100 | 0.14 | 3.6 | > 100 | – | – | –
28 | COc1ccc([C@H](C)[C@H](N)C(=O)N2CC[C@H](F)C2)cc1 | – | > 100 | 0.77 | 14 | > 100 | – | – | –
29 | C[C@@H](c1ccc(-c2cccc(-c3noc(O)n3)c2)cc1)[C@H](N)C(=O)N1CC[C@H](F)C1.O=C(O)C(F)(F)F | 66 | > 100 | 0.003 | 1.1 | > 100 | 4.2 | 23.9 | 28
30 | C[C@@H](c1ccc(S(C)(=O)=O)cc1)[C@H](N)C(=O)N1CC[C@H](F)C1 | – | > 100 | 3.6 | 36 | > 100 | – | – | –
31 | C[C@@H](c1ccc(-c2ccccc2F)cc1)[C@H](N)C(=O)N1CC[C@H](F)C1 | – | > 100 | 0.1 | 1.1 | > 100 | – | – | –
32 | C[C@@H](c1ccc(-c2ccncc2)cc1)[C@H](N)C(=O)N1CC[C@H](F)C1 | – | > 100 | 0.11 | 3.1 | > 100 | – | – | –
33 | C[C@@H](c1ccc(-c2ccccc2C(F)(F)F)cc1)[C@H](N)C(=O)N1CC[C@H](F)C1 | – | > 100 | 0.13 | 2.5 | > 100 | – | – | –
